Broadly, the pIC50 is the IC50 on a negative log10 scale, so that one unit is a factor of ten.

pIC50: −log10 of the molar value. Some results are limits rather than exact numbers.

The target in assay [1] is T1, MTHFD1 recombinant human enzyme (Homo sapiens, UniProt P11586).
T1 sequence (P11586 2-291 limits assumed): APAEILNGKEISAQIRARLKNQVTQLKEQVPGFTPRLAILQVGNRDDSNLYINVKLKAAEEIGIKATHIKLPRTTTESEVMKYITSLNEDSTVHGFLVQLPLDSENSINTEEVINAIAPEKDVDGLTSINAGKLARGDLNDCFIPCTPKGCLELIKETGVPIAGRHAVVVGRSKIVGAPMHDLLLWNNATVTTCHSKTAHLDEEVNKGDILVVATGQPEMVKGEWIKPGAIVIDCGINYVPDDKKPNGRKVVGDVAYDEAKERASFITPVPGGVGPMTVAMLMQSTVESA
Put plainly: MTHFD1 inhibition assay (NAD(P)H-Glo luminescence). The note with it: MTHFD1 IC50, recombinant human enzyme 200 nM, NADP, band.

The target of assay [2] is T2, MTHFD2 recombinant human enzyme (Homo sapiens, UniProt P13995).
T2 sequence (P13995 36-350): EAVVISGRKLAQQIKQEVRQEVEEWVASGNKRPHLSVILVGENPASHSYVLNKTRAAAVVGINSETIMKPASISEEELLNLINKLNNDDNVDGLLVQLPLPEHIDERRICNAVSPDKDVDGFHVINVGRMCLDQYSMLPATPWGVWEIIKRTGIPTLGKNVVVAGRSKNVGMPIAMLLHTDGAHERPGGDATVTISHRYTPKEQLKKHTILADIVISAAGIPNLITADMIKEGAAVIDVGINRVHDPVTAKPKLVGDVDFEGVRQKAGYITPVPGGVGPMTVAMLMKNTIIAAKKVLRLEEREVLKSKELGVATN
Nature of the assay: MTHFD2 inhibition assay (NAD(P)H-Glo luminescence). The note with it: for MTHFD1/MTHFD2 IC50 ratio: selectivity of MTHFD2 inhibition over MTHFD1, band.

For the compound `COC[C@@H]1CN(c2cc(C)c3c4c(c(=O)oc3c2C)CN(C(=O)c2ccc(C(=O)NS(=O)(=O)N3CCCC3)c(OC3CCC3)c2)CC4)CCN1C` [Example 131, (S)-2-cyclobutoxy-4-(8-(3-(methoxymethyl)-4-methylpiperazin-1-yl)-7,10-dimethyl-5-oxo-1,3,4,5-tetrahydro-2H-chromeno[3,4-c]pyridine-3-carbonyl)-N-(pyrrolidin-1-ylsulfonyl)benzamide], the pIC50 in assay [1] is 6.00 to 7.00. Besides, in assay [2], the pIC50 was 7.00 to 8.00 and the “MTHFD1/MTHFD2 IC50 ratio” value is recorded as “G (^ 3 to 9.0)”.

Regarding `COC[C@H]1CN(c2cc(C)c3c4c(c(=O)oc3c2C)CN(C(=O)c2ccc(C(=O)NS(=O)(=O)C3(C)CC3)c(N3CC5CC5C3)c2)CC4)CCN1C` (stereo partly drawn) [Example 46, 2-(3-azabicyclo[3.1.0]hexan-3-yl)-4-(8-((R)-3-(methoxymethyl)-4-methylpiperazin-1-yl)-7,10-dimethyl-5-oxo-1,3,4,5-tetrahydro-2H-chromeno[3,4-c]pyridine-3-carbonyl)-N-((1-methylcyclopropyl)sulfonyl)benzamide], in assay [1], the negative logarithm of the IC50 (pIC50) is 7.00 to 8.00. In addition, in assay [2], the pIC50 was 8.00 to 9.00 and the “MTHFD1/MTHFD2 IC50 ratio” value was “H (>9.0 to 30)”.

As to `COC[C@H]1CN(c2ccc3c4c(c(=O)oc3c2C)CN(C(=O)c2ccc(C(=O)NS(=O)(=O)N(C)C(C)C)c(OC3CCCC3)c2F)CC4)CCN1C` [Example 58, (R)-2-(cyclopentyloxy)-3-fluoro-N-(N-isopropyl-N-methylsulfamoyl)-4-(8-(3-(methoxymethyl)-4-methylpiperazin-1-yl)-7-methyl-5-oxo-1,3,4,5-tetrahydro-2H-chromeno[3,4-c]pyridine-3-carbonyl)benzamide], the negative-log IC50 (pIC50) in assay [1] and in assay [2] was 8.00 to 9.00 throughout.

As for `COC[C@H]1CN(c2cc(C)c3c4c(c(=O)oc3c2C)CN(C(=O)c2cc(C(=O)NS(=O)(=O)N3CCCC3)cc(OC3CCC3)c2F)CC4)CCN1C` [Example 166, (R)-3-cyclobutoxy-4-fluoro-5-(8-(3-(methoxymethyl)-4-methylpiperazin-1-yl)-7,10-dimethyl-5-oxo-1,3,4,5-tetrahydro-2H-chromeno[3,4-c]pyridine-3-carbonyl)-N-(pyrrolidin-1-ylsulfonyl)benzamide], in assay [1], the pIC50 was less than 5.30. For the same compound, in assay [2], the pIC50 is 6.00 to 7.00 and the “MTHFD1/MTHFD2 IC50 ratio” value was “G (^ 3 to 9.0)”.

For the compound `COC[C@H]1CN(c2cc(Cl)c3c4c(c(=O)oc3c2C)CN(C(=O)c2ccc(C(=O)NS(=O)(=O)N3CC5CC5C3)c(OC)c2)CC4)CCN1C` (stereo partly drawn) [Example 280, N-((3-azabicyclo[3.1.0]hexan-3-yl)sulfonyl)-4-(10-chloro-8-((R)-3-(methoxymethyl)-4-methylpiperazin-1-yl)-7-methyl-5-oxo-1,3,4,5-tetrahydro-2H-chromeno[3,4-c]pyridine-3-carbonyl)-2-methoxybenzamide], the negative logarithm of the IC50 (pIC50) in assay [1] is 6.00 to 7.00. In assay [2], the pIC50 was 7.00 to 8.00 and the “MTHFD1/MTHFD2 IC50 ratio” value is recorded as “H (>9.0 to 30)”.

For `CCOc1c(C(=O)NS(=O)(=O)N2C3CCCC2CC3)ccc(C(=O)N2CCc3c(c(=O)oc4c(C)c(N5CCN(C)[C@@H](COC)C5)cc(C)c34)C2)c1F` [Example 234], the pIC50 in assay [1] was 7.00 to 8.00. Besides, in assay [2], the negative-log IC50 (pIC50) was 7.00 to 8.00 and the “MTHFD1/MTHFD2 IC50 ratio” value is given as “F (<3)”.

Take `COC[C@H]1CN(c2ccc3c4c(c(=O)oc3c2C)CN(C(=O)c2cc(Cl)c(C(=O)NS(=O)(=O)C3(C)CC3)c(N3C5CCC3CC5)c2)CC4)CCN1C` [Example 40, (R)-2-(7-azabicyclo[2.2.1]heptan-7-yl)-6-chloro-4-(8-(3-(methoxymethyl)-4-methylpiperazin-1-yl)-7-methyl-5-oxo-1,3,4,5-tetrahydro-2H-chromeno[3,4-c]pyridine-3-carbonyl)-N-((1-methylcyclopropyl)sulfonyl)benzamide]: in assay [1], the pIC50 is 7.00 to 8.00. In addition, in assay [2], the negative-log IC50 (pIC50) was 8.00 to 9.00 and the “MTHFD1/MTHFD2 IC50 ratio” value is “H (>9.0 to 30)”.

As to `COC[C@H]1CN(c2cc(Cl)c3c4c(c(=O)oc3c2C)CN(C(=O)c2cc(N(C)C)c(C(=O)NS(=O)(=O)N3CCCCC3)cc2F)CC4)CCN1C` [Example 275, (R)-4-(10-chloro-8-(3-(methoxymethyl)-4-methylpiperazin-1-yl)-7-methyl-5-oxo-1,3,4,5-tetrahydro-2H-chromeno[3,4-c]pyridine-3-carbonyl)-2-(dimethylamino)-5-fluoro-N-(piperidin-1-ylsulfonyl)benzamide], in assay [1], the pIC50 was 6.00 to 7.00. In addition, in assay [2], the pIC50 is 7.00 to 8.00 and the “MTHFD1/MTHFD2 IC50 ratio” value is recorded as “G (^ 3 to 9.0)”.

Consider `COC[C@H]1CN(c2cc(Cl)c3c4c(c(=O)oc3c2C)CN(C(=O)c2cc(N(C)C)c(C(=O)NS(=O)(=O)N3CC[C@@H](OC)C3)cc2F)CC4)CCN1C` [Example 285, 4-(10-chloro-8-((R)-3-(methoxymethyl)-4-methylpiperazin-1-yl)-7-methyl-5-oxo-1,3,4,5-tetrahydro-2H-chromeno[3,4-c]pyridine-3-carbonyl)-2-(dimethylamino)-5-fluoro-N-(((R)-3-methoxypyrrolidin-1-yl)sulfonyl)benzamide], for which the figures for the pIC50 in assay [1] and in assay [2] were 6.00 to 7.00 and 7.00 to 8.00, respectively. Also, the “MTHFD1/MTHFD2 IC50 ratio” value in assay [2] is reported as “H (>9.0 to 30)”.

As for `COC[C@H]1CN(c2ccc3c4c(c(=O)oc3c2C)CN(C(=O)c2ccc(C(=O)NS(=O)(=O)N3CCCC3)c(OC3C[C@@H]5C[C@@H]5C3)c2)CC4)CCN1C` (mixture of isomers) [Example 114, 2-(bicyclo[3.1.0]hexan-3-yloxy)-4-(8-((R)-3-(methoxymethyl)-4-methylpiperazin-1-yl)-7-methyl-5-oxo-1,3,4,5-tetrahydro-2H-chromeno[3,4-c]pyridine-3-carbonyl)-N-(pyrrolidin-1-ylsulfonyl)benzamide], the pIC50 in assay [1] was 7.00 to 8.00. Also, in assay [2], the negative-log IC50 (pIC50) is 6.00 to 7.00 and the “MTHFD1/MTHFD2 IC50 ratio” value is given as “F (<3)”.

Regarding `COC[C@H]1CN(c2cc(C)c3c4c(c(=O)oc3c2C)CN(C(=O)c2cc(C(=O)NS(=O)(=O)N3CCCC3)c3c(c2F)OC2(CCC2)O3)CC4)CCN1C` [Example 168, (R)-4-fluoro-5-(8-(3-(methoxymethyl)-4-methylpiperazin-1-yl)-7,10-dimethyl-5-oxo-1,3,4,5-tetrahydro-2H-chromeno[3,4-c]pyridine-3-carbonyl)-N-(pyrrolidin-1-ylsulfonyl)spiro[benzo[d][1,3]dioxole-2,1′-cyclobutane]-7-carboxamide], the pIC50 in assay [1] is less than 5.30. Further, in assay [2], the negative logarithm of the IC50 (pIC50) is 5.30 to 6.00 and the “MTHFD1/MTHFD2 IC50 ratio” value is “F (<3)”.

Regarding `COC[C@H]1CN(c2ccc3c4c(c(=O)oc3c2C)CN(C(=O)c2ccc(C(=O)NS(=O)(=O)N3CCCC3)c(N(C)C)c2F)CC4)CCN1C` [Example 139, (R)-2-(dimethylamino)-3-fluoro-4-(8-(3-(methoxymethyl)-4-methylpiperazin-1-yl)-7-methyl-5-oxo-1,3,4,5-tetrahydro-2H-chromeno[3,4-c]pyridine-3-carbonyl)-N-(pyrrolidin-1-ylsulfonyl)benzamide], the pIC50 in assay [1] was 6.00 to 7.00. Besides, in assay [2], the negative-log IC50 (pIC50) was 6.00 to 7.00 and the “MTHFD1/MTHFD2 IC50 ratio” value is given as “G (^ 3 to 9.0)”.

On to `COC[C@H]1CN(c2cc(C)c3c4c(c(=O)oc3c2C)CN(C(=O)c2ccc(C(=O)NS(=O)(=O)N3CCCC3)cc2Cl)CC4)CCN1C` [Example 184, (R)-3-chloro-4-(8-(3-(methoxymethyl)-4-methylpiperazin-1-yl)-7,10-dimethyl-5-oxo-1,3,4,5-tetrahydro-2H-chromeno[3,4-c]pyridine-3-carbonyl)-N-(pyrrolidin-1-ylsulfonyl)benzamide], for which the pIC50 in assay [1] was 5.30 to 6.00. Besides, in assay [2], the negative-log IC50 (pIC50) was 6.00 to 7.00 and the “MTHFD1/MTHFD2 IC50 ratio” value was “J (>30)”.

As to `COC[C@H]1CN(c2cc(C)c3c4c(c(=O)oc3c2C)CN(C(=O)c2ccc(C(=O)NS(=O)(=O)C3(C)CC3)c(N(C)C3CCC3)c2F)CC4)CCN1C` [Example 38, (R)-2-(cyclobutyl(methyl)amino)-3-fluoro-4-(8-(3-(methoxymethyl)-4-methylpiperazin-1-yl)-7,10-dimethyl-5-oxo-1,3,4,5-tetrahydro-2H-chromeno[3,4-c]pyridine-3-carbonyl)-N-((1-methylcyclopropyl)sulfonyl)benzamide], in assay [1], the negative logarithm of the IC50 (pIC50) was 7.00 to 8.00. For the same compound, in assay [2], the pIC50 was 8.00 to 9.00 and the “MTHFD1/MTHFD2 IC50 ratio” value is recorded as “G (^ 3 to 9.0)”.

Consider `COC[C@H]1CN(c2cc(C)c3c4c(c(=O)oc3c2C)CN(C(=O)c2ccc(C(=O)NS(=O)(=O)N(C)C)c(N(C)C3CC3)c2)CC4)CCN1C` [Example 84, (R)-2-(cyclopropyl(methyl)amino)-N-(N,N-dimethylsulfamoyl)-4-(8-(3-(methoxymethyl)-4-methylpiperazin-1-yl)-7,10-dimethyl-5-oxo-1,3,4,5-tetrahydro-2H-chromeno[3,4-c]pyridine-3-carbonyl)benzamide], for which the negative-log IC50 (pIC50) in assay [1] is 7.00 to 8.00. Besides, in assay [2], the negative-log IC50 (pIC50) is 8.00 to 9.00 and the “MTHFD1/MTHFD2 IC50 ratio” value is on record as “G (^ 3 to 9.0)”.

(Values after patent US12662489B2 (Sitryx Therapeutics Limited, priority 2023, dated 2026).)
